Data as given in ChEMBL document CHEMBL1765027, “5'-Modified pyrimidine nucleosides as inhibitors of ribonuclease A” (Bioorg Med Chem, 2011).
The source made the active and inactive calls. No cut-off for these calls is given here.

Tests used:
[1] = target: T1, Ribonuclease pancreatic (Bos taurus) (UniProt P61823); test: Inhibition of bovine pancreatic RNase A ribonucleolytic activity assessed as reduction of yeast tRNA degradation at 0.27 mM preincubated for 2 hrs by precipitation assay
T1 sequence (whole entry): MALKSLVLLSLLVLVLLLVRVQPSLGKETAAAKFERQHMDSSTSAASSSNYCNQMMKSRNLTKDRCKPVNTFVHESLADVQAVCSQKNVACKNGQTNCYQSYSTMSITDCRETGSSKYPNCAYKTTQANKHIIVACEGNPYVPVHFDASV

[2] = target: T1, Ribonuclease pancreatic (Bos taurus); test: Inhibition of bovine pancreatic RNase A-mediated degradation of yeast tRNA assessed as residual tRNA band at 0.09 mM preincubated for 3 hrs measured after 30 mins of addition of tRNA using ethidium bromide staining by agarose gel based assay
[3] = target: T1, Ribonuclease pancreatic (Bos taurus); test: Inhibition of bovine pancreatic RNase A-mediated degradation of yeast tRNA assessed as residual tRNA band at 0.18 mM preincubated for 3 hrs measured after 30 mins of addition of tRNA using ethidium bromide staining by agarose gel based assay
[4] = target: T2, Ribonuclease pancreatic (Bos taurus, UniProt P61823); test: Inhibition of bovine pancreatic RNase A using 2',3'-cCMP as a substrate by Dixon plot analysis
T2 sequence (P61823 whole entry): T1 sequence (whole entry)

[5] = target: T2, Ribonuclease pancreatic; test: Inhibition of bovine pancreatic RNase A using 2',3'-cCMP as a substrate by Lineweaver-Burk analysis
[6] = target: T1, Ribonuclease pancreatic (Bos taurus); test: Inhibition of bovine pancreatic RNase A-mediated degradation of yeast tRNA assessed as residual tRNA band at 0.27 mM preincubated for 3 hrs measured after 30 mins of addition of tRNA using ethidium bromide staining by agarose gel based assay
[7] = target: T2, Ribonuclease pancreatic; test: Inhibition of bovine pancreatic RNase A at pH 5.9 by spectrophotometric method

Row | Structure (SMILES) | inhibition [1] | Activity [2] | Activity [3] | Ki [4] | Ki [5] | Activity [6] | Ki [7]
1 | O=C(O)C1CCN(C[C@H]2O[C@@H](n3ccc(=O)[nH]c3=O)[C@H](O)[C@@H]2O)CC1 | 37% | Active | Active | 61 µM | 75 µM | Active | 
2 | Cc1cn([C@H]2C[C@@H](O)[C@@H](CN3CCC(C(=O)O)CC3)O2)c(=O)[nH]c1=O | 18% | Active | Active | 183 µM | 229 µM | Active | 
3 | Nc1ncnc2c1ncn2[C@@H]1O[C@H](CO)[C@@H](OP(=O)(O)OC[C@H]2O[C@@H](n3ccc(=O)[nH]c3=O)C[C@@H]2OP(=O)(O)OP(=O)(O)O)[C@H]1O |  |  |  |  |  |  | 0.027 µM
4 | Cc1cn([C@H]2C[C@H](O)[C@@H](CN3CCC(C(=O)O)CC3)O2)c(=O)[nH]c1=O | 23% | Active | Active | 121 µM | 162 µM | Active | 
5 | Cc1cn([C@H]2C=C[C@@H](CN3CCC(C(=O)O)CC3)O2)c(=O)[nH]c1=O | 14% | Active | Active |  | 250 µM | Active | 
